This is an account of results in patent US9468640B2, “Piperidin-4-yl-pyridazin-3-ylamine derivatives as fast dissociating dopamine 2 receptor antagonists” (Janssen Pharmaceutica N.V., priority 2005, dated 2016).

Structures are written as SMILES.

T1 sequence (P14416 whole entry): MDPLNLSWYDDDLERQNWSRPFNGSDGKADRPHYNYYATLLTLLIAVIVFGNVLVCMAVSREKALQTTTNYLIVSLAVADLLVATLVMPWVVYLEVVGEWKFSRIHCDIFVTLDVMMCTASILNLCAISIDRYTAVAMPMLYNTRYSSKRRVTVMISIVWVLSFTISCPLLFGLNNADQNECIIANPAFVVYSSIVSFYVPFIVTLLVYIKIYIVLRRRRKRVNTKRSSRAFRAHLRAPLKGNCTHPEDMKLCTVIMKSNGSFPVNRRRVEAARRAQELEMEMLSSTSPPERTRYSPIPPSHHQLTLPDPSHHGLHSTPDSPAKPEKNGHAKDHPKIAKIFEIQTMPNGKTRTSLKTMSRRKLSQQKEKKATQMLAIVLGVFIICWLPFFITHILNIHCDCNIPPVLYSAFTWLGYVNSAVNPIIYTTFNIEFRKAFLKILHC

The first data set concerns the target T1, human Dopamine D2L receptor (Homo sapiens, UniProt P14416).
T1 construct: expressed in transfected cells; host or cells: CHO cells
Put plainly: In vitro binding affinity for human D2L receptor ([3H]spiperone competition). As to conditions: membranes of human D2L receptor-transfected CHO cells, 30 min, 37° C. As for the experimental part:
Frozen membranes of human Dopamine D2L receptor-transfected CHO cells were thawed, briefly homogenised using an Ultra-Turrax T25 homogeniser and diluted in Tris-HCl assay buffer containing NaCl, CaCl2, MgCl2, KCl (50, 120, 2, 1, and 5 mM respectively, adjusted to pH 7.7 with HCl) to an appropriate protein concentration optimised for specific and non-specific binding. Radioligand [^3H]Spiperone (NEN, specific activity ˜70 Ci/mmol) was diluted in assay buffer at a concentration of 2 nmol/L. Prepared radioligand (50 μl), along with 50 μl of either the 10% DMSO control, Butaclamol (10^−6 mol/l final concentration), or compound of interest, was then incubated (30 min, 37° C.) with 400 μl of the prepared membrane solution. Membrane-bound activity was filtered through a Packard Filtermate harvester onto GF/B Unifilterplates and washed with ice-cold Tris-HCl buffer (50 mM; pH 7.7; 6×0.5 ml). Filters were allowed to dry before adding scintillation fluid and counting in a Topcount scintillation counter. Percentage specific bound and competition binding curves were calculated using S-Plus software (Insightful).
`COc1ccc(CN2CCC(Nc3ccc(C(F)(F)F)nn3)CC2)cc1F` [Example E41, N-[1-(3-fluoro-4-methoxybenzyl)piperidin-4-yl]-6-(trifluoromethyl)pyridazin-3-amine]: the IC50 (usually the concentration needed to halve the response being measured) was under 6.31 µM.
With `CC(c1ccc(F)cc1)N1CCC(Nc2ccc(C(F)(F)F)nn2)CC1` (stereo not drawn) [Example E44, N-[1-(4-fluoro-α-methylbenzyl)piperidin-4-yl]-6-(trifluoromethyl)pyridazin-3-amine], the IC50 is under 6.31 µM.
In turn, `Fc1ccc(CN2CCC(Nc3ccc(C(F)(F)F)nn3)CC2)c(F)c1` [Example E42, N-[1-(2,4-difluorobenzyl)piperidin-4-yl]-6-(trifluoromethyl)pyridazin-3-amine] had an IC50 of under 6.31 µM.
Consider `CC(c1ccc(F)c(F)c1)N1CCC(Nc2ccc(C(F)(F)F)nn2)CC1` (racemic) [Example E45, (R,S)—N-[1-(3,4-difluoro-α-methylbenzyl)piperidin-4-yl]-6-(trifluoromethyl)pyridazin-3-amine], for which the IC50 was under 6.31 µM.
`Fc1ccccc1CN1CCC(Nc2ccc(C(F)(F)F)nn2)CC1` [Example E8, N-[1-(2-fluorobenzyl)piperidin-4-yl]-6-(trifluoromethyl)pyridazin-3-amine]: the IC50 was under 6.31 µM.
Consider `CN(c1ccc(Cl)nn1)C1CCN(Cc2cccc(C(F)(F)F)c2)CC1` [Example E25, N-[1-(3-trifluoromethylbenzyl)piperidin-4-yl]-N-methyl-6-chloropyridazin-3-amine], for which the IC50 is under 6.31 µM.

System in another data set: not given
Assay: not given
Conditions: not given
As for `Fc1ccc(CN2CCC(Nc3ccc(C(F)(F)F)nn3)CC2)cc1` [Example E2, N-[1-(4-fluorobenzyl)piperidin-4-yl]-6-(trifluoromethyl)pyridazin-3-amine], the melting point – broadly, the temperature of the solid-liquid transition – fell in the range of 163.3 to 165.3 °C.
